Tested on: MV-4-11 cells
Experiment: Gene expression microarray analysis (Affymetrix PrimeView) and GSEA
Format: cell-based, human
Design: RFU PODN (11730768_x_at) / Fold change /veh PODN (11730768_x_at) / RFU LINC00158 (11744669_a_at) / Fold change /veh LINC00158 (11744669_a_at) / RFU DUSP10 (11751237_a_at) / Fold change /veh DUSP10 (11751237_a_at) / RFU ID3 (11757404_x_at) / Fold change /veh ID3 (11757404_x_at) / RFU PLEKHG5 (11737974_s_at) / Fold change /veh PLEKHG5 (11737974_s_at) / RFU LRRC4B (11730491_at) / Fold change /veh LRRC4B (11730491_at) / RFU GIMAP4 (11747438_a_at) / Fold change /veh GIMAP4 (11747438_a_at) / RFU KRT8 (11758183_x_at) / Fold change /veh KRT8 (11758183_x_at) / RFU CNN1 (11734310_a_at) / Fold change /veh CNN1 (11734310_a_at) / RFU VPS37D (11726825_at) / Fold change /veh VPS37D (11726825_at) / RFU C10orf10 (11716522_x_at) / Fold change /veh C10orf10 (11716522_x_at) / RFU KIR2DL2 /// KIR2DL4 /// KIR2DL5A /// KIR2DL5B /// KIR2DS1 /// KIR2DS2 /// KIR2DS3 /// KIR2DS4 /// KIR3DL3 /// KIR3DL3 /// KIR3DS1 (11738374_at) / Fold change /veh KIR2DL2 /// KIR2DL4 /// KIR2DL5A /// KIR2DL5B /// KIR2DS1 /// KIR2DS2 /// KIR2DS3 /// KIR2DS4 /// KIR3DL3 /// KIR3DL3 /// KIR3DS1 (11738374_at) / RFU C1QL1 (11718748_at) / Fold change /veh C1QL1 (11718748_at) / RFU TMPRSS4 (11747572_a_at) / Fold change /veh TMPRSS4 (11747572_a_at) / RFU HAMP (11756126_x_at) / Fold change /veh HAMP (11756126_x_at) / RFU RNFT2 (11725882_a_at) / Fold change /veh RNFT2 (11725882_a_at) / RFU NR4A2 (11747474_a_at) / Fold change /veh NR4A2 (11747474_a_at) / RFU ABCC12 (11746883_a_at) / Fold change /veh ABCC12 (11746883_a_at) / RFU TMEM136 (11760407_x_at) / Fold change /veh TMEM136 (11760407_x_at) / RFU CLDN22 /// WWC2 (11732394_at) / Fold change /veh CLDN22 /// WWC2 (11732394_at) / RFU HLA-DPB1 (11760878_x_at) / Fold change /veh HLA-DPB1 (11760878_x_at) / RFU SPINT1 (11716480_a_at) / Fold change /veh SPINT1 (11716480_a_at) / RFU GAP43 (11754022_s_at) / Fold change /veh GAP43 (11754022_s_at) / RFU A4GNT (11735810_at) / Fold change /veh A4GNT (11735810_at) / RFU PRB3 (11715151_x_at) / Fold change /veh PRB3 (11715151_x_at) / RFU TUBB4B (11761932_at) / Fold change /veh TUBB4B (11761932_at) / RFU CAPN14 (11732068_a_at) / Fold change /veh CAPN14 (11732068_a_at) / RFU TMCC2 (11721928_a_at) / Fold change /veh TMCC2 (11721928_a_at) / RFU IRGQ (11745062_a_at) / Fold change /veh IRGQ (11745062_a_at) / RFU FAM174B (11720279_a_at) / Fold change /veh FAM174B (11720279_a_at) / RFU TMPRSS4 (11748680_a_at) / Fold change /veh TMPRSS4 (11748680_a_at) / RFU FAM212B (11763350_a_at) / Fold change /veh FAM212B (11763350_a_at) / RFU PLEKHG5 (11743358_a_at) / Fold change /veh PLEKHG5 (11743358_a_at) / RFU ZSCAN30 (11745921_a_at) / Fold change /veh ZSCAN30 (11745921_a_at) / RFU CMKLR1 (11741424_a_at) / Fold change /veh CMKLR1 (11741424_a_at) / RFU LOC101060620 /// MAPK8IP1 (11723275_at) / Fold change /veh LOC101060620 /// MAPK8IP1 (11723275_at) / RFU SPTSSB (11747773_x_at) / Fold change /veh SPTSSB (11747773_x_at) / RFU PRSS12 (11739890_at) / Fold change /veh PRSS12 (11739890_at) / RFU BIN1 (11741810_x_at) / Fold change /veh BIN1 (11741810_x_at) / RFU WNT11 (11732464_a_at) / Fold change /veh WNT11 (11732464_a_at) / RFU C10orf10 (11716521_a_at) / Fold change /veh C10orf10 (11716521_a_at) / RFU C5orf56 (11738089_at) / Fold change /veh C5orf56 (11738089_at) / RFU CYB561 (11721691_x_at) / Fold change /veh CYB561 (11721691_x_at) / RFU ANKRD19P (11752326_a_at) / Fold change /veh ANKRD19P (11752326_a_at) / RFU OR2T12 /// OR2T33 /// OR2T8 (11738714_s_at) / Fold change /veh OR2T12 /// OR2T33 /// OR2T8 (11738714_s_at) / RFU VCAN (11748164_a_at) / Fold change /veh VCAN (11748164_a_at) / RFU JSRP1 (11732532_at) / Fold change /veh JSRP1 (11732532_at) / RFU KRTAP10-11 (11738290_x_at) / Fold change /veh KRTAP10-11 (11738290_x_at) / RFU MYO3A (11730013_a_at) / Fold change /veh MYO3A (11730013_a_at) / RFU EBF3 (11725865_a_at) / Fold change /veh EBF3 (11725865_a_at) / RFU CAMK2N1 (11719241_x_at) / Fold change /veh CAMK2N1 (11719241_x_at) / RFU C5orf56 (11738088_a_at) / Fold change /veh C5orf56 (11738088_a_at) / RFU OLFML3 (11715873_a_at) / Fold change /veh OLFML3 (11715873_a_at) / RFU LOC100653217 /// NTM (11731650_a_at) / Fold change /veh LOC100653217 /// NTM (11731650_a_at) / RFU MAPK11 (11762145_a_at) / Fold change /veh MAPK11 (11762145_a_at) / RFU FIZ1 (11724087_x_at) / Fold change /veh FIZ1 (11724087_x_at) / RFU OASL (11726364_x_at) / Fold change /veh OASL (11726364_x_at) / RFU SOX15 (11748057_x_at) / Fold change /veh SOX15 (11748057_x_at) / RFU CD79A (11719716_a_at) / Fold change /veh CD79A (11719716_a_at) / RFU HIST1H1D (11736915_at) / Fold change /veh HIST1H1D (11736915_at) / RFU CASKIN2 (11723855_a_at) / Fold change /veh CASKIN2 (11723855_a_at) / RFU LOC730098 (11760151_x_at) / Fold change /veh LOC730098 (11760151_x_at) / RFU OR4N2 (11742367_at) / Fold change /veh OR4N2 (11742367_at) / RFU PRRT2 (11749266_a_at) / Fold change /veh PRRT2 (11749266_a_at) / RFU SNX32 (11753110_a_at) / Fold change /veh SNX32 (11753110_a_at) / RFU CDHR5 (11726645_a_at) / Fold change /veh CDHR5 (11726645_a_at) / RFU RCAN1 (11760418_a_at) / Fold change /veh RCAN1 (11760418_a_at) / RFU FAM167A (11723789_a_at) / Fold change /veh FAM167A (11723789_a_at) / RFU FAM26E (11764081_at) / Fold change /veh FAM26E (11764081_at) / RFU ISYNA1 (11749810_s_at) / Fold change /veh ISYNA1 (11749810_s_at) / RFU ACY1 (11761880_at) / Fold change /veh ACY1 (11761880_at) / RFU 11764098_at / Fold change /veh 11764098_at / RFU SAMD14 (11745864_x_at) / Fold change /veh SAMD14 (11745864_x_at) / RFU NPB (11741838_a_at) / Fold change /veh NPB (11741838_a_at) / RFU TMPRSS6 (11731388_a_at) / Fold change /veh TMPRSS6 (11731388_a_at) / RFU KRTAP10-2 (11738614_at) / Fold change /veh KRTAP10-2 (11738614_at) / RFU ARHGAP8 /// PRR5-ARHGAP8 (11727945_x_at) / Fold change /veh ARHGAP8 /// PRR5-ARHGAP8 (11727945_x_at) / RFU KRTAP5-7 /// NADSYN1 (11734609_at) / Fold change /veh KRTAP5-7 /// NADSYN1 (11734609_at) / RFU RASL12 (11751679_a_at) / Fold change /veh RASL12 (11751679_a_at) / RFU CDKN2B (11736163_a_at) / Fold change /veh CDKN2B (11736163_a_at) / RFU PRF1 (11729649_at) / Fold change /veh PRF1 (11729649_at) / RFU, ZNF638 /// ZNF638-IT1 / Fold change vs veh, ZNF638 /// ZNF638-IT1 / RFU, PANK3 / Fold change vs veh, PANK3 / RFU, SH3YL1 / Fold change vs veh, SH3YL1 / RFU, ZEB2 / Fold change vs veh, ZEB2 / RFU, NRIP1 / Fold change vs veh, NRIP1 / RFU, PTTG1IP / Fold change vs veh, PTTG1IP / RFU, CAPN2 / Fold change vs veh, CAPN2 / RFU, MED14 / Fold change vs veh, MED14 / RFU, SNORA58 / Fold change vs veh, SNORA58 / RFU, C1orf63 / Fold change vs veh, C1orf63 / RFU, LRRFIP1 / Fold change vs veh, LRRFIP1 / RFU, NDUFAF7 / Fold change vs veh, NDUFAF7 / RFU, SLC12A2 / Fold change vs veh, SLC12A2 / RFU, IBTK / Fold change vs veh, IBTK / RFU, ESF1 / Fold change vs veh, ESF1 / Fold change vs veh, TMEM50B / RFU, TAOK1 / Fold change vs veh, TAOK1 / RFU, ACBD3 / Fold change vs veh, ACBD3 / RFU, TMA16 / Fold change vs veh, TMA16 / RFU, RWDD3 / Fold change vs veh, RWDD3 / RFU, BCAT1 / Fold change vs veh, BCAT1 / RFU, EDEM3 / Fold change vs veh, EDEM3 / RFU, TMEM33 / Fold change vs veh, TMEM33 / RFU, WDR75 / Fold change vs veh, WDR75 / RFU, AHCTF1 / Fold change vs veh, AHCTF1 / RFU, TFRC / Fold change vs veh, TFRC / RFU, ZDHHC17 / Fold change vs veh, ZDHHC17 / RFU, NOM1 / Fold change vs veh, NOM1 / RFU, ARL8B / Fold change vs veh, ARL8B / RFU, ZBTB11 / Fold change vs veh, ZBTB11 / RFU, TAMM41 / Fold change vs veh, TAMM41 / RFU, KIAA1704 /// LOC100996395 / Fold change vs veh, KIAA1704 /// LOC100996395 / RFU, ING1 / Fold change vs veh, ING1 / RFU, TRMT61B / Fold change vs veh, TRMT61B / RFU, FUBP3 / Fold change vs veh, FUBP3 / RFU, TP53 / Fold change vs veh, TP53 / RFU, TNKS2 / Fold change vs veh, TNKS2 / RFU, ZFP14 / Fold change vs veh, ZFP14 / RFU, ACTR2 / Fold change vs veh, ACTR2 / RFU, PPP3R1 / Fold change vs veh, PPP3R1 / RFU, PIK3R1 / Fold change vs veh, PIK3R1 / RFU, HNRNPA1 / Fold change vs veh, HNRNPA1 / RFU, RNF170 / Fold change vs veh, RNF170 / RFU, ZNF28 / Fold change vs veh, ZNF28 / RFU, RNGTT / Fold change vs veh, RNGTT / RFU, OGT / Fold change vs veh, OGT / RFU, BRD1 / Fold change vs veh, BRD1 / RFU, MARS / Fold change vs veh, MARS / RFU, ZNF655 / Fold change vs veh, ZNF655 / RFU, FAHD1 / Fold change vs veh, FAHD1 / RFU, BDP1 / Fold change vs veh, BDP1 / RFU, LRRCC1 / Fold change vs veh, LRRCC1 / RFU, ARID1A / Fold change vs veh, ARID1A / RFU, ZNF146 / Fold change vs veh, ZNF146 / RFU, ZNF330 / Fold change vs veh, ZNF330 / RFU, GPN3 / Fold change vs veh, GPN3 / RFU, C9orf123 / Fold change vs veh, C9orf123 / RFU, N4BP2L2 / Fold change vs veh, N4BP2L2 / RFU, ARFIP1 / Fold change vs veh, ARFIP1 / RFU, FAM179B / Fold change vs veh, FAM179B / RFU, BCL10 / Fold change vs veh, BCL10 / RFU, UHRF1BP1L / Fold change vs veh, UHRF1BP1L / RFU, BET1 / Fold change vs veh, BET1 / RFU, CNOT2 / Fold change vs veh, CNOT2 / RFU, ZNF268 / Fold change vs veh, ZNF268 / Fold change vs veh, ZNF507 / RFU, DGCR2 / Fold change vs veh, DGCR2 / RFU, WDSUB1 / Fold change vs veh, WDSUB1 / Fold change vs veh, HSP90B1 /// MIR3652 / RFU, ADSS / Fold change vs veh, ADSS / RFU, GK / Fold change vs veh, GK / RFU, ZNF148 / Fold change vs veh, ZNF148 / RFU, TAF9 / Fold change vs veh, TAF9 / RFU, SLC1A5 / Fold change vs veh, SLC1A5 / RFU, SLMO2 / Fold change vs veh, SLMO2 / RFU, ABCC4 / Fold change vs veh, ABCC4 / RFU, LOC101060439 /// RAP1B / Fold change vs veh, LOC101060439 /// RAP1B / RFU, RFX7 / Fold change vs veh, RFX7 / RFU, GTPBP10 / Fold change vs veh, GTPBP10 / RFU, CNEP1R1 / Fold change vs veh, CNEP1R1 / RFU, BIVM-ERCC5 /// ERCC5 / Fold change vs veh, BIVM-ERCC5 /// ERCC5 / RFU, ILF3 / Fold change vs veh, ILF3 / RFU 11762660_at / Fold change /veh 11762660_at / RFU VCAN (11757783_s_at) / Fold change /veh VCAN (11757783_s_at) / RFU DDX43 (11728927_at) / Fold change /veh DDX43 (11728927_at) / RFU KRT8 (11758188_x_at) / Fold change /veh KRT8 (11758188_x_at) / RFU NKD1 (11759106_at) / Fold change /veh NKD1 (11759106_at) / RFU SRD5A1 (11742802_a_at) / Fold change /veh SRD5A1 (11742802_a_at) / RFU TPSAB1 /// TPSB2 (11721975_s_at) / Fold change /veh TPSAB1 /// TPSB2 (11721975_s_at) / RFU GSTM3 (11746129_a_at) / Fold change /veh GSTM3 (11746129_a_at) / RFU IL23R (11737362_x_at) / Fold change /veh IL23R (11737362_x_at) / RFU TMEM51 (11727254_a_at) / Fold change /veh TMEM51 (11727254_a_at) / RFU PIWIL2 (11732686_x_at) / Fold change /veh PIWIL2 (11732686_x_at) / RFU ORM1 (11744905_x_at) / Fold change /veh ORM1 (11744905_x_at) / RFU CCDC152 (11743942_at) / Fold change /veh CCDC152 (11743942_at) / RFU ECM1 (11717891_a_at) / Fold change /veh ECM1 (11717891_a_at) / RFU IL23R (11748794_a_at) / Fold change /veh IL23R (11748794_a_at) / RFU TNFAIP8L3 (11732012_x_at) / Fold change /veh TNFAIP8L3 (11732012_x_at) / RFU MBOAT4 (11741988_at) / Fold change /veh MBOAT4 (11741988_at) / RFU 11764193_at / Fold change /veh 11764193_at / RFU TMEM53 (11763286_at) / Fold change /veh TMEM53 (11763286_at) / RFU MAGEB2 (11727129_at) / Fold change /veh MAGEB2 (11727129_at) / RFU TMEM200A (11744735_a_at) / Fold change /veh TMEM200A (11744735_a_at) / RFU CCDC152 (11751479_a_at) / Fold change /veh CCDC152 (11751479_a_at) / RFU FAM211A (11726209_a_at) / Fold change /veh FAM211A (11726209_a_at) / RFU RGS16 (11746705_a_at) / Fold change /veh RGS16 (11746705_a_at) / RFU VCAN (11755009_s_at) / Fold change /veh VCAN (11755009_s_at) / RFU RHOB (11743442_s_at) / Fold change /veh RHOB (11743442_s_at) / RFU RGS16 (11720943_a_at) / Fold change /veh RGS16 (11720943_a_at) / RFU RGS16 (11720944_at) / Fold change /veh RGS16 (11720944_at) / RFU, VPS4B / Fold change vs veh, VPS4B / RFU, CREB1 / Fold change vs veh, CREB1 / RFU, DNAJC13 / Fold change vs veh, DNAJC13 / RFU, GNAQ / Fold change vs veh, GNAQ / RFU, CDK5R1 / Fold change vs veh, CDK5R1 / RFU, ZRANB3 / Fold change vs veh, ZRANB3 / RFU, CUL4A / Fold change vs veh, CUL4A / RFU, CCNY / Fold change vs veh, CCNY / RFU, UFL1 / Fold change vs veh, UFL1 / RFU, COG3 / Fold change vs veh, COG3 / RFU, DIAPH2 / Fold change vs veh, DIAPH2 / RFU, SKA2 / Fold change vs veh, SKA2 / RFU, AFF3 / Fold change vs veh, AFF3 / RFU, LMF1 / Fold change vs veh, LMF1 / RFU, IPO11 / Fold change vs veh, IPO11 / RFU, DFFB / Fold change vs veh, DFFB / RFU, FOXP1 / Fold change vs veh, FOXP1 / RFU, CARD8 / Fold change vs veh, CARD8 / RFU, STRN3 / Fold change vs veh, STRN3 / RFU, ADK / Fold change vs veh, ADK / RFU, RASSF2 / Fold change vs veh, RASSF2 / RFU, WIPF1 / Fold change vs veh, WIPF1 / RFU, LARP1B / Fold change vs veh, LARP1B / RFU, RASA1 / Fold change vs veh, RASA1 / RFU, RB1 / Fold change vs veh, RB1 / RFU, PPFIA1 / Fold change vs veh, PPFIA1 / RFU, MAT2A / Fold change vs veh, MAT2A / RFU, CCT5 / Fold change vs veh, CCT5 / RFU, WDR92 / Fold change vs veh, WDR92 / RFU, CUX1 / Fold change vs veh, CUX1 / RFU, TTC7A / Fold change vs veh, TTC7A / RFU, TMEM135 / Fold change vs veh, TMEM135 / RFU, DEPTOR / Fold change vs veh, DEPTOR / RFU, CPM / Fold change vs veh, CPM / RFU, DNAJB6 / Fold change vs veh, DNAJB6 / RFU, CACNA2D3 / Fold change vs veh, CACNA2D3 / RFU, DTX4 / Fold change vs veh, DTX4 / RFU, TFCP2 / Fold change vs veh, TFCP2 / RFU, GMCL1 /// GMCL1P1 / Fold change vs veh, GMCL1 /// GMCL1P1 / RFU, AEBP2 / Fold change vs veh, AEBP2 / RFU, SNHG1 /// SNORD22 /// SNORD25 /// SNORD26 /// SNORD27 /// SNORD28 /// SNORD29 /// SNORD31 / Fold change vs veh, SNHG1 /// SNORD22 /// SNORD25 /// SNORD26 /// SNORD27 /// SNORD28 /// SNORD29 /// SNORD31 / Fold change (Aza/veh), C12orf56 (ProbeSet 11735607_a_at) / Fold change (ACY-1035/veh), C12orf56 (ProbeSet 11735607_a_at) / Fold change (Aza/veh), FGFR1OP (ProbeSet 11751329_s_at) / Fold change (ACY-1035/veh), FGFR1OP (ProbeSet 11751329_s_at) / Fold change (Aza/veh), VPS36 (ProbeSet 11739960_a_at) / Fold change (ACY-1035/veh), VPS36 (ProbeSet 11739960_a_at) / RFU SYPL1 (11715823_x_at) / Fold change /veh SYPL1 (11715823_x_at) / RFU IGFBP7 (11715501_s_at) / Fold change /veh IGFBP7 (11715501_s_at) / RFU REEP3 (11722064_at) / Fold change /veh REEP3 (11722064_at) / RFU IGLL1 (11728026_x_at) / Fold change /veh IGLL1 (11728026_x_at): dose or concentration left out as unconfirmed
Details: ProbeSet 11755070_a_at; LIST D

Structure (SMILES): Nc1ncn([C@@H]2O[C@H](CO)[C@@H](O)[C@H]2O)c(=O)n1 [azacitidine]
- RFU, CARD8: 161.67 RFU

Reference: article PMC5218480 (PLoS ONE, 2017)
